Measured values from US10239844B2, “Disubstituted triazole analogs” (BioVentures, LLC, priority 2014, dated 2019).

Experiments:
Format in all cases: cell-based, human
[1] = test system: K-562; assay: NCI 60 panel five-dose growth inhibition, Leukemia; conditions: K-562, Leukemia; for GI50: Homo sapiens, K562
[2] = test system: HOP-92; assay: NCI 60 panel five-dose growth inhibition, Non-Small Cell Lung Cancer; conditions: HOP-92, Non-Small Cell Lung Cancer; for GI50: Homo sapiens
[3] = test system: A549/ATCC; assay: as above; conditions: for GI50: Homo sapiens
[4] = test system: U251; assay: NCI 60 panel five-dose growth inhibition, CNS Cancer; conditions: for GI50: Homo sapiens, U-251
[5] = test system: HT29; assay: NCI 60 panel five-dose growth inhibition, Colon Cancer; conditions: for GI50: Homo sapiens, HT-29
[6] = test system: NCI-H460; assay: NCI 60 panel five-dose growth inhibition, Non-Small Cell Lung Cancer; conditions: for GI50: Homo sapiens
[7] = test system: M14; assay: NCI 60 panel five-dose growth inhibition, Melanoma; conditions: for GI50: Homo sapiens
[8] = test system: SF-268; assay: NCI 60 panel five-dose growth inhibition, CNS Cancer; conditions: SF-268, CNS Cancer; for GI50: Homo sapiens
[9] = test system: CCRF-CEM; assay: NCI 60 panel five-dose growth inhibition, Leukemia; conditions: for GI50: Homo sapiens
[10] = test system: HCC-2998; assay: NCI 60 panel five-dose growth inhibition, Colon Cancer; conditions: HCC-2998, Colon Cancer; for GI50: Homo sapiens
[11] = test system: SF-539; assay: NCI 60 panel five-dose growth inhibition, CNS Cancer; conditions: SF-539, CNS Cancer; for GI50: Homo sapiens
[12] = test system: MOLT-4; assay: NCI 60 panel five-dose growth inhibition, Leukemia; conditions: MOLT-4, Leukemia; for GI50: Homo sapiens
[13] = test system: U0-31; assay: NCI 60 panel five-dose growth inhibition, Renal Cancer; conditions: U0-31, Renal Cancer; for GI50: Homo sapiens
[14] = test system: 786-0; assay: as above; conditions: 786-0, Renal Cancer; for GI50: Homo sapiens
[15] = test system: OVCAR-4; assay: NCI 60 panel five-dose growth inhibition, Ovarian Cancer; conditions: OVCAR-4, Ovarian Cancer
[16] = test system: MDA-MB-435; assay: NCI 60 panel five-dose growth inhibition, Melanoma; conditions: for GI50: Homo sapiens
[17] = test system: MDA-MB-468; assay: NCI 60 panel five-dose growth inhibition, Breast Cancer; conditions: MDA-MB-468, Breast Cancer; for GI50: Homo sapiens
[18] = test system: 1-ICT-15; assay: NCI 60 panel five-dose growth inhibition, Colon Cancer; conditions: 1-ICT-15, Colon Cancer; for GI50: Homo sapiens
[19] = test system: MCF7; assay: NCI 60 panel five-dose growth inhibition, Breast Cancer; conditions: for GI50: Homo sapiens
[20] = test system: COLO 205; assay: NCI 60 panel five-dose growth inhibition, Colon Cancer; conditions: COLO 205, Colon Cancer; for GI50: Homo sapiens
[21] = test system: IGROV1; assay: NCI 60 panel five-dose growth inhibition, Ovarian Cancer; conditions: for GI50: Homo sapiens, IGROV-1
[22] = test system: SK-MEL-28; assay: NCI 60 panel five-dose growth inhibition, Melanoma; conditions: SK-MEL-28, Melanoma
[23] = test system: RPMI-8226; assay: NCI 60 panel five-dose growth inhibition, Leukemia; conditions: RPMI-8226, Leukemia; for GI50: Homo sapiens
[24] = test system: SNB-75; assay: NCI 60 panel five-dose growth inhibition, CNS Cancer; conditions: SNB-75, CNS Cancer; for GI50: Homo sapiens
[25] = test system: HOP-62; assay: NCI 60 panel five-dose growth inhibition, Non-Small Cell Lung Cancer; conditions: HOP-62, Non-Small Cell Lung Cancer; for GI50: Homo sapiens
[26] = test system: SF-295; assay: NCI 60 panel five-dose growth inhibition, CNS Cancer; conditions: SF-295, CNS Cancer; for GI50: Homo sapiens
[27] = test system: OVCA R-3; assay: NCI 60 panel five-dose growth inhibition, Ovarian Cancer; conditions: OVCA R-3, Ovarian Cancer; for GI50: Homo sapiens, OVCAR-3
[28] = test system: KM12; assay: NCI 60 panel five-dose growth inhibition, Colon Cancer; conditions: for GI50: Homo sapiens
[29] = test system: PC-3; assay: NCI 60 panel five-dose growth inhibition, Prostate Cancer; conditions: PC-3, Prostate Cancer; for GI50: Homo sapiens
[30] = test system: 5K-MEL-5; assay: NCI 60 panel five-dose growth inhibition, Melanoma; conditions: 5K-MEL-5, Melanoma; for GI50: Homo sapiens
[31] = test system: SK-MEL-2; assay: NCI 60 panel five-dose growth inhibition, Melanoma; conditions: SK-MEL-2, Melanoma; for GI50: Homo sapiens
[32] = test system: LOX IMVI; assay: NCI 60 panel five-dose growth inhibition, Melanoma; conditions: for GI50: Homo sapiens
[33] = test system: SW-620; assay: NCI 60 panel five-dose growth inhibition, Colon Cancer; conditions: SW-620, Colon Cancer; for GI50: Homo sapiens
[34] = test system: SNB-19; assay: NCI 60 panel five-dose growth inhibition, CNS Cancer; conditions: SNB-19, CNS Cancer; for GI50: Homo sapiens
[35] = test system: CAKI-1; assay: NCI 60 panel five-dose growth inhibition, Renal Cancer; conditions: CAKI-1, Renal Cancer; for GI50: Homo sapiens
[36] = test system: HCT-116; assay: NCI 60 panel five-dose growth inhibition, Colon Cancer; conditions: HCT-116, Colon Cancer; for GI50: Homo sapiens

Question: Which GI50 [1] does the source give for `COc1cc(-c2n[nH]nc2-c2cc(OC)c(OC)c(OC)c2)cc(OC)c1OC` [Example 3, 4,5-bis(3,4,5-trimethoxyphenyl)-2H-1,2,3-triazole] here?
Answer: 0.0257 µM

Question: And the TGI [1]?
Answer: >100 µM

Question: And the TGI [2]?
Answer: 11.3 µM

Question: And the GI50 [2]?
Answer: 0.0989 µM

Question: What about the TGI [3] of the same compound?
Answer: >100 µM

Question: What about the GI50 [3] of the same compound?
Answer: 0.0541 µM

Question: What about the TGI [4] of the same compound?
Answer: 46.9 µM

Question: And the GI50 [4]?
Answer: 0.0371 µM

Question: And the TGI [5]?
Answer: 14.5 µM

Question: And the GI50 [5]?
Answer: 0.214 µM

Question: And the TGI [6]?
Answer: >100 µM

Question: And the GI50 [6]?
Answer: 0.0381 µM

Question: What about the GI50 [7] of the same compound?
Answer: 0.0215 µM

Question: And the GI50 [8]?
Answer: 0.503 µM

Question: And the TGI [8]?
Answer: >100 µM

Question: What about the TGI [9] of the same compound?
Answer: >100 µM

Question: And the GI50 [9]?
Answer: 0.0373 µM

Question: What about the TGI [10] of the same compound?
Answer: >100 µM

Question: And the GI50 [10]?
Answer: 0.23 µM

Question: And the GI50 [11]?
Answer: 0.02 µM

Question: And the TGI [11]?
Answer: 0.05 µM

Question: What about the GI50 [12] of the same compound?
Answer: 0.0682 µM

Question: And the TGI [12]?
Answer: >100 µM

Question: And the GI50 [13]?
Answer: 0.0923 µM

Question: What about the TGI [13] of the same compound?
Answer: >100 µM

Question: And the TGI [14]?
Answer: >100 µM

Question: What about the GI50 [14] of the same compound?
Answer: 0.0428 µM

Question: What about the GI50 ([15]; Homo sapiens) of the same compound?
Answer: 0.0774 µM

Question: What about the TGI [15] of the same compound?
Answer: >100 µM

Question: What about the GI50 ([16]; MDA-MB-435, Melanoma) of the same compound?
Answer: < 0.01 µM

Question: What about the GI50 [17] of the same compound?
Answer: 0.0346 µM

Question: What about the TGI [17] of the same compound?
Answer: 26.0 µM

Question: What about the TGI [18] of the same compound?
Answer: >100 µM

Question: And the GI50 [18]?
Answer: 0.0373 µM

Question: What about the TGI [19] of the same compound?
Answer: >100 µM

Question: What about the GI50 [19] of the same compound?
Answer: 0.0269 µM

Question: And the TGI [20]?
Answer: 1.16 µM

Question: What about the GI50 [20] of the same compound?
Answer: 0.228 µM

Question: What about the TGI [21] of the same compound?
Answer: >100 µM

Question: And the GI50 [21]?
Answer: 0.0648 µM

Question: What about the GI50 ([22]; Homo sapiens) of the same compound?
Answer: > 1 µM

Question: What about the TGI [22] of the same compound?
Answer: 6.33 µM

Question: And the GI50 [23]?
Answer: 0.0365 µM

Question: What about the TGI [23] of the same compound?
Answer: 87.6 µM

Question: And the GI50 [24]?
Answer: 0.0157 µM

Question: What about the TGI [25] of the same compound?
Answer: >100 µM

Question: What about the GI50 [25] of the same compound?
Answer: 0.0467 µM

Question: What about the GI50 [26] of the same compound?
Answer: 0.0144 µM

Question: And the TGI [26]?
Answer: >100 µM

Question: And the GI50 [27]?
Answer: 0.0108 µM

Question: And the TGI [27]?
Answer: 0.04 µM

Question: What about the TGI [28] of the same compound?
Answer: >100 µM

Question: What about the GI50 [28] of the same compound?
Answer: 0.0353 µM

Question: What about the GI50 [29] of the same compound?
Answer: 0.0458 µM

Question: And the TGI [29]?
Answer: >100 µM

Question: And the TGI [30]?
Answer: 0.35 µM

Question: What about the GI50 [30] of the same compound?
Answer: 0.0126 µM

Question: And the GI50 [31]?
Answer: 0.0269 µM

Question: What about the TGI [31] of the same compound?
Answer: 4.24 µM

Question: What about the TGI [32] of the same compound?
Answer: >100 µM

Question: What about the GI50 [32] of the same compound?
Answer: 0.0652 µM

Question: What about the GI50 [33] of the same compound?
Answer: 0.0406 µM

Question: And the TGI [33]?
Answer: >100 µM

Question: What about the GI50 [34] of the same compound?
Answer: 0.0525 µM

Question: And the TGI [34]?
Answer: >100 µM

Question: And the TGI [35]?
Answer: >100 µM

Question: What about the GI50 [35] of the same compound?
Answer: 0.0426 µM

Question: What about the GI50 [36] of the same compound?
Answer: 0.0402 µM

Question: What does the source list for `COc1cc(-c2n[nH]nc2-c2ccc3ccccc3n2)cc(OC)c1OC` [Example 4, 2-(5-(3,4,5-trimethoxyphenyl)-2H-1,2,3-triazol-4-yl)quinoline]?
Answer: GI50 [1]: < 0.01 µM; TGI [1]: >100 µM; TGI [2]: 2.67 µM; GI50 [2]: < 0.01 µM; TGI [3]: >100 µM; GI50 [3]: 0.0374 µM; TGI [4]: >100 µM; GI50 [4]: 0.0379 µM; TGI [5]: 20.5 µM; GI50 [5]: 0.0476 µM; TGI [6]: >100 µM; GI50 [6]: 0.0342 µM; TGI [7]: >100 µM; GI50 [7]: < 0.01 µM; GI50 [8]: 0.177 µM; TGI [8]: >100 µM; TGI [9]: 21.8 µM; GI50 [9]: 0.0319 µM; TGI [10]: 11.4 µM; GI50 [10]: 0.0459 µM; GI50 [11]: 0.0138 µM; TGI [11]: 0.04 µM; GI50 [12]: 0.0482 µM; TGI [12]: 20.0 µM; GI50 [13]: 0.02 µM; TGI [13]: >100 µM; TGI [14]: >100 µM; GI50 [14]: 0.0153 µM; TGI [15]: >100 µM; GI50 ([16]; MDA-MB-435, Melanoma): < 0.01 µM; TGI ([16]; MDA-MB-435, Melanoma): 0.01 µM; sensitivity to the growth inhibitory effects ([16]; MDA-MB-435, in words): sensitive; GI50 [17]: 0.0233 µM; TGI [17]: 0.08 µM; TGI [18]: 5.13 µM; GI50 [18]: < 0.01 µM; TGI [19]: >100 µM; GI50 [19]: 0.0245 µM; TGI [20]: 0.64 µM; GI50 [20]: 0.149 µM; TGI [21]: >100 µM; GI50 [21]: 0.0509 µM; GI50 [23]: 0.0368 µM; TGI [23]: 21.1 µM; GI50 [24]: 0.0142 µM; TGI [24]: >100 µM; TGI [25]: >100 µM; GI50 [25]: 0.025 µM; GI50 [26]: 0.0108 µM; TGI [26]: 0.15 µM; GI50 [27]: 0.0244 µM; TGI [27]: >100 µM; TGI [28]: 23.8 µM; GI50 [28]: 0.0298 µM; GI50 [29]: 0.0415 µM; TGI [29]: >100 µM; TGI [30]: 0.32 µM; GI50 [30]: 0.0267 µM; GI50 [31]: 0.0555 µM; TGI [31]: >100 µM; TGI [32]: >100 µM; GI50 [32]: 0.0755 µM; GI50 [33]: 0.0295 µM; TGI [33]: >100 µM; GI50 [34]: 0.0369 µM; TGI [34]: >100 µM; TGI [35]: >100 µM; GI50 [35]: 0.0502 µM; TGI [36]: 1.47 µM; GI50 [36]: < 0.01 µM
